System: RKO p21 uninduced (proliferating) colon adenocarcinoma cells
Test: Alamar Blue cell viability assay, RKO p21 uninduced (proliferating)
Assay type: cell-based
Details: Homo sapiens, Table B3, anti-proliferative/cytotoxic activity, 72 hours, read-out: −log EC50 RKO p21 uninduced (proliferating) (converted)
Summary of the method: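 RKO p21 or p27 subclones grown without Ponasterone A, i.e. proliferating, exposed 24 h after seeding to semi-log compound dilutions in DMEM/10% FCS (1% DMSO controls) for 72 h at 37° C. Alamar Blue fluorescence (544/590 nm) read relative to untreated cells; EC50 from dose-response curves, given as −log EC50 (mol/l).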

Structure (SMILES) | EC50
CCOc1ccc2[nH]c3c(c2c1)C[C@@]1(C)C(=O)N(CCCN2CCCCCC2)C(=O)N1[C@@H]3c1cccc(O)c1 (racemic) [Example 210, (3aSR,10RS)-2-(3-Azepan-1-yl-propyl)-6-ethoxy-10-(3-hydroxy-phenyl)-3a-methyl-3a,4,9,10-tetrahydro-2,9,10a-triaza-cyclopenta[b]fluorene-1,3-dione] | 39.8 to 251 nM
CNCCCN1C(=O)N2[C@H](c3cccc(O)c3)c3[nH]c4ccc(Br)cc4c3C[C@@]2(C)C1=O (racemic) [Example 211, (3aSR,10RS)-6-Bromo-10-(3-hydroyx-phenyl)-3a-methyl-2-(3-methylamino-propyl)-3a,4,9,10-tetrahydro-2,9,10a-triaza-cyclopenta[b]fluorene-1,3-dione] | ≤ 39.8 nM
CCNCCCN1C(=O)N2[C@H](c3cccc(O)c3)c3[nH]c4ccc(Br)cc4c3C[C@@]2(C)C1=O (racemic) [Example 212, (3aSR,10RS)-6-Bromo-2-(3-ethylamino-propyl)-10-(3-hydroxy-phenyl)-3a-methyl-3a,4,9,10-tetrahydro-2,9,10a-triaza-cyclopenta[b]fluorene-1,3-dione] | ≤ 39.8 nM
CC(C)CNCCCN1C(=O)N2[C@H](c3cccc(O)c3)c3[nH]c4ccc(Br)cc4c3C[C@@]2(C)C1=O (racemic) [Example 213, (3aSR,10RS)-6-Bromo-10-(3-hydroxy-phenyl)-2-(3-isobutylamino-propyl)-3a-methyl-3a,4,9,10-tetrahydro-2,9,10a-triaza-cyclopenta[b]fluorene-1,3-dione] | ≤ 39.8 nM
COCCNCCCN1C(=O)N2[C@H](c3cccc(O)c3)c3[nH]c4ccc(Br)cc4c3C[C@@]2(C)C1=O (racemic) [Example 214, (3aSR,10RS)-6-Bromo-10-(3-hydroxy-phenyl)-2-[3-(2-methoxy-ethylamino)-propyl]-3a-methyl-3a,4,9,10-tetrahydro-2,9,10a-triaza-cyclopenta[b]fluorene-1,3-dione] | ≤ 39.8 nM
C[C@@]12Cc3c([nH]c4ccc(Br)cc34)[C@@H](c3cccc(O)c3)N1C(=O)N(CCCNC1CC1)C2=O (racemic) [Example 215, (3aSR,10RS)-6-Bromo-2-(3-cyclopropylamino-propyl)-10-(3-hydroxy-phenyl)-3a-methyl-3a,4,9,10-tetrahydro-2,9,10a-triaza-cyclopenta[b]fluorene-1,3-dione] | ≤ 39.8 nM
CCN(C)CCCN1C(=O)N2[C@H](c3cccc(O)c3)c3[nH]c4ccc(Br)cc4c3C[C@@]2(C)C1=O (racemic) [Example 216, (3aSR,10RS)-6-Bromo-2-[3-(ethyl-methyl-amino)-propyl]-10-(3-hydroxy-phenyl)-3a-methyl-3a,4,9,10-tetrahydro-2,9,10a-triaza-cyclopenta[b]fluorene-1,3-dione] | ≤ 39.8 nM
CCN(CCCN1C(=O)N2[C@H](c3cccc(O)c3)c3[nH]c4ccc(Br)cc4c3C[C@@]2(C)C1=O)CCOC (racemic) [Example 217, (3aSR,10RS)-6-Bromo-2-{3-[ethyl-(2-methoxy-ethyl)-amino]-propyl}-10-(3-hydroxy-phenyl)-3a-methyl-3a,4,9,10-tetrahydro-2,9,10a-triaza-cyclopenta[b]fluorene-1,3-dione] | ≤ 39.8 nM
CC(C)N(C)CCCN1C(=O)N2[C@H](c3cccc(O)c3)c3[nH]c4ccc(Br)cc4c3C[C@@]2(C)C1=O (racemic) [Example 218, (3aSR,10RS)-6-Bromo-10-(3-hydroxy-phenyl)-2-[3-(isopropyl-methyl-amino)-propyl]-3a-methyl-3a,4,9,10-tetrahydro-2,9,10a-triaza-cyclopenta[b]fluorene-1,3-dione] | ≤ 39.8 nM
C[C@@]12Cc3c([nH]c4ccc(Br)cc34)[C@@H](c3cccc(O)c3)N1C(=O)N(CCCN1CCCC1)C2=O (racemic) [Example 219, (3aSR,10RS)-6-Bromo-10-(3-hydroxy-phenyl)-3a-methyl-2-(3-pyrrolidin-1-yl-propyl)-3a,4,9,10-tetrahydro-2,9,10a-triaza-cyclopenta[b]fluorene-1,3-dione] | ≤ 39.8 nM
CC(=O)N1CCN(CCCN2C(=O)N3[C@H](c4cccc(O)c4)c4[nH]c5ccc(Br)cc5c4C[C@@]3(C)C2=O)CC1 (racemic) [Example 220, (3aSR,10RS)-2-[3-(4-Acetyl-piperazin-1-yl)-propyl]-6-bromo-10-(3-hydroxy-phenyl)-3a-methyl-3a,4,9,10-tetrahydro-2,9,10a-triaza-cyclopenta[b]fluorene-1,3-dione] | 39.8 to 251 nM
CCOc1ccc2[nH]c3c(c2c1)C[C@@]1(C)C(=O)N(CCCN2CCCC2)C(=O)N1[C@@H]3c1cccc(O)c1 (racemic) [Example 221, (3aSR,10RS)-6-Ethoxy-10-(3-hydroxy-phenyl)-3a-methyl-2-(3-pyrrolidin-1-yl-propyl)-3a,4,9,10-tetrahydro-2,9,10a-triaza-cyclopenta[b]fluorene-1,3-dione] | 39.8 to 251 nM
CCOc1ccc2[nH]c3c(c2c1)C[C@@]1(C)C(=O)N(CCCN2CC=CC2)C(=O)N1[C@@H]3c1cccc(O)c1 (racemic) [Example 222, (3aSR,10RS)-2-[3-(2,5-Dihydro-pyrrol-1-yl)-propyl]-6-ethoxy-10-(3-hydroxy-phenyl)-3a-methyl-3a,4,9,10-tetrahydro-2,9,10a-triaza-cyclopenta[b]fluorene-1,3-dione] | 39.8 to 251 nM
CCOc1ccc2[nH]c3c(c2c1)C[C@@]1(C)C(=O)N(CCCN2CCCCC2)C(=O)N1[C@@H]3c1cccc(O)c1 (racemic) [Example 223, (3aSR,10RS)-6-Ethoxy-10-(3-hydroxy-phenyl)-3a-methyl-2-(3-piperidin-1-yl-propyl)-3a,4,9,10-tetrahydro-2,9,10a-triaza-cyclopenta[b]fluorene-1,3-dione] | 39.8 to 251 nM
CCOc1ccc2[nH]c3c(c2c1)C[C@@]1(C)C(=O)N(CCCN2CCC(C)CC2)C(=O)N1[C@@H]3c1cccc(O)c1 (racemic) [Example 224, (3aSR,10RS)-6-Ethoxy-10-(3-hydroxy-phenyl)-3a-methyl-2-[3-(4-methyl-piperidin-1-yl)-propyl]-3a,4,9,10-tetrahydro-2,9,10a-triaza-cyclopenta[b]fluorene-1,3-dione] | 39.8 to 251 nM
C#CCNCCCN1C(=O)N2[C@H](c3cccc(O)c3)c3[nH]c4ccc(OCC)cc4c3C[C@@]2(C)C1=O (racemic) [Example 225, (3aSR,10RS)-6-Ethoxy-10-(3-hydroxy-phenyl)-3a-methyl-2-(3-prop-2-ynylamino-propyl)-3a,4,9,10-tetrahydro-2,9,10a-triaza-cyclopenta[b]fluorene-1,3-dione] | 39.8 to 251 nM
CCOc1ccc2[nH]c3c(c2c1)C[C@@]1(C)C(=O)N(CCCN(C)C)C(=O)N1[C@@H]3c1cccc(O)c1 (racemic) [Example 226, (3aSR,10RS)-2-(3-Dimethylamino-propyl)-6-ethoxy-10-(3-hydroxy-phenyl)-3a-methyl-3a,4,9,10-tetrahydro-2,9,10a-triaza-cyclopenta[b]fluorene-1,3-dione] | 39.8 to 251 nM
CCN(CC)CCCN1C(=O)N2[C@H](c3cccc(O)c3)c3[nH]c4ccc(Br)cc4c3C[C@@]2(C)C1=O (racemic) [Example 228, (3aSR,10RS)-6-Bromo-2-(3-diethylamino-propyl)-10-(3-hydroxy-phenyl)-3a-methyl-3a,4,9,10-tetrahydro-2,9,10a-triaza-cyclopenta[b]fluorene-1,3-dione] | ≤ 39.8 nM
CCOc1ccc2[nH]c3c(c2c1)C[C@@]1(C)C(=O)N(CCCN2CCN(C)CC2)C(=O)N1[C@@H]3c1cccc(O)c1 (racemic) [Example 229, (3aSR,10RS)-6-Ethoxy-10-(3-hydroxy-phenyl)-3a-methyl-2-[3-(4-methyl-piperazin-1-yl)-propyl]-3a,4,9,10-tetrahydro-2,9,10a-triaza-cyclopenta[b]fluorene-1,3-dione] | 39.8 to 251 nM
CN(C)CCCN1C(=O)N2[C@H](c3cccc(O)c3)c3[nH]c4ccc(Br)cc4c3C[C@@]2(C)C1=O (racemic) [Example 230, (3aSR,10RS)-6-Bromo-2-(3-dimethylamino-propyl)-10-(3-hydroyx-phenyl)-3a-methyl-3a,4,9,10-tetrahydro-2,9,10a-triaza-cyclopenta[b]fluorene-1,3-dione] | ≤ 39.8 nM
CCN(CCO)CCCN1C(=O)N2[C@H](c3cccc(O)c3)c3[nH]c4ccc(Br)cc4c3C[C@@]2(C)C1=O (racemic) [Example 231, (3aSR,10RS)-6-Bromo-2-{3-[ethyl-(2-hydroxy-ethyl)-amino]-propyl}-10-(3-hydroyx-phenyl)-3a-methyl-3a,4,9,10-tetrahydro-2,9,10a-triaza-cyclopenta[b]fluorene-1,3-dione] | ≤ 39.8 nM
C[C@@]12Cc3c([nH]c4ccc(Br)cc34)[C@@H](c3cccc(O)c3)N1C(=O)N(CCCN1CC=CCC1)C2=O (racemic) [Example 232, (3aSR,10RS)-6-Bromo-2-[3-(3,6-dihydro-2H-pyridin-1-yl)-propyl]-10-(3-hydroxy-phenyl)-3a-methyl-3a,4,9,10-tetrahydro-2,9,10a-triaza-cyclopenta[b]fluorene-1,3-dione] | ≤ 39.8 nM
CC(C)NCCN1C(=O)N2[C@H](c3cccc(O)c3)c3[nH]c4ccc(Br)cc4c3C[C@@]2(C)C1=O (racemic) [Example 233, (3aSR,10RS)-6-Bromo-10-(3-hydroxy-phenyl)-2-(2-ispropylamino-ethyl)-3a-methyl-3a,4,9,10-tetrahydro-2,9,10a-triaza-cyclopenta[b]fluorene-1,3-dione] | ≤ 39.8 nM
C[C@@]12Cc3c([nH]c4ccc(Br)cc34)[C@@H](c3cccc(O)c3)N1C(=O)N(CCCNCC1CC1)C2=O (racemic) [Example 234, (3aSR,10RS)-6-Bromo-2-[3-(cyclopropylmethyl-amino)-propyl]-10-(3-hydroxy-phenyl)-3a-methyl-3a,4,9,10-tetrahydro-2,9,10a-triaza-cyclopenta[b]fluorene-1,3-dione] | ≤ 39.8 nM

Reference: patent US8530493B2, “Indolopyridines as Eg5 kinesin modulators” (4SC AG, priority 2006, dated 2013)
